Assay results as given in patent US20220409617A1, “Drug Formulations and Methods of Treatment for Metabolic Disorders” (The Regents of the University of California, priority 2019, published 2022).

Tested on: A549 lung cancer cells
Test: KRAS-mediated mitochondrial fission in A549 cells
Format: cell-based, human
Settings: A549, oncogenic KRAS; 893 5 μM 1 h, leflunomide 50 μM 24 h
Experimental: 3T3-L1 cells were maintained in DMEM with 10% FBS and 1% penicillin-streptomycin until induced to differentiate. 3T3-L1 pre-adipocytes were differentiated as described in (M. P. Valley, et al., Anal. Biochem. 505: 43-50, 2016, the disclosure of which is incorporated herein by reference) with slight modifications. Briefly, pre-adipocytes were grown to confluence. After 2 d, cells were induced with maintenance media containing 500 μM IBMX (15879, Sigma-Aldrich, St. Louis, Mo.), 1 μM dexamethasone (D4902, Sigma-Aldrich), 5 μg/mL bovine insulin (10516, Sigma-Aldrich), and 5 μM troglitazone (50-115-0786, ApexBio). Media was changed every 2-3 d for 7 d. On day 7 post-induction, media was changed to maintenance media+5 μg/mL bovine insulin. On day 9 post-induction, media was changed to maintenance media. Mature adipocytes were used 12-14 d post-induction for all experiments. LSL-KrasG12D mouse embryonic fibroblasts (MEFs) with and without Cre-mediated deletion of the STOP cassette were obtained from David Tuveson (Cold Spring Harbor Laboratory, Cold Spring Harbor N.Y., USA) in 2000. p53^flox/flox MEFs were derived in house (2015) from C57BL/6 mice using standard techniques and immortalized by transient expression of Cre recombinase and deletion of p53. MEFs were cultured and maintained in DMEM with 10% FBS and 1% penicillin-streptomycin. A549 cells were cultured in DMEM with 10% FBS, 1% penicillin-streptomycin and 1% sodium pyruvate. Stock solution of palmitic acid (ACROS Organics, cat # AC129702500) was prepared at 100 mM in ethanol. Palmitate (250 μM) was conjugated to 1% (w/v) fatty-acid free bovine serum albumin (Sigma, A8806) in DMEM at 37° C. for 20 min. For all immunofluorescence assays, 8,000 MEFs were seeded into 8-chamber slides (Cellvis, cat # C8-1.5H-N) 12-16 h before treatment. Cells were pre-treated with sphingolipid-like compound 893 (5 μM in water), myriocin (10 μM in methanol), fumonisin-B1 (30 μM in DMSO), or celastrol (500 nM in DMSO) for 3 h followed by a 3 h treatment with BSA-conjugated palmitate mixture or BSA alone. […]
MEFs were washed twice with PBS and fixed with 4% paraformaldehyde for 10 min at RT. […] NADH/NADPH autofluorescence was detected with 740 nm excitation and 450±50 nm detectors using a Mai Tai two-photon laser. Fluorescence microscopy was performed on a Zeiss LSM 780 confocal using a 63× oil objective with a […] numerical aperture (NA) or using a Nikon TE2000-S inverted epifluorescence microscope with a 100× oil objective (1.3 NA) and a Photometrics CoolSNAP ES2 monochrome CCD camera. […]

CCCCCCCCc1ccc([C@H]2CCN[C@@H]2CO)cc1.Cl [compound 893]
Reversal of mitochondrial fragmentation / tubularity in A549 cells: rapidly corrected KRAS-mediated mitochondrial fission
